Assay results from BigSolDB 2.1.

NC(=O)c1ccncc1
solubility (mole fraction)
Details | 278.15 K | 283.15 K | 288.15 K | 293.15 K | 298.15 K | 303.15 K | 308.15 K | 313.15 K | 318.15 K | 323.15 K
in DMAc | 0.114 | 0.129 | 0.147 | 0.168 | 0.19 | 0.213 | 0.236 | 0.256 | 0.278 | 0.299
in DMF | 0.13 | 0.135 | 0.147 | 0.157 | 0.17 | 0.181 | 0.193 | 0.208 | 0.221 | 0.24
in THF | 0.0108 | 0.012 | 0.0143 | 0.0167 | 0.0194 | 0.0218 | 0.0247 | 0.0276 | 0.0308 | 0.0344
in acetone | 0.00012 | 0.00014 | 0.00017 | 0.00021 | 0.00025 | 0.00029 | 0.00034 | 0.00039 | 0.00047 | 0.00057
in acetonitrile | 0.00251 | 0.00313 | 0.00392 | 0.00473 | 0.00572 | 0.00695 | 0.00841 | 0.0102 | 0.0125 | 0.0152
in ethanol | 0.0191 | 0.0221 | 0.0266 | 0.0307 | 0.0347 | 0.0407 | 0.0461 | 0.0548 | 0.0664 | 0.0796
in ethyl acetate | 0.00272 | 0.00341 | 0.00414 | 0.00504 | 0.0062 | 0.00754 | 0.0105 | 0.0138 | 0.0172 | 0.0218
in isopropanol | 0.0156 | 0.0182 | 0.0211 | 0.0253 | 0.0291 | 0.034 | 0.0381 | 0.0465 | 0.0559 | 0.0669
in isopropyl acetate | 0.00204 | 0.00217 | 0.0025 | 0.00283 | 0.00328 | 0.00397 | 0.00505 | 0.00616 | 0.00734 | 0.00871
in methanol | 0.0336 | 0.0392 | 0.0439 | 0.0515 | 0.0602 | 0.0678 | 0.0773 | 0.0911 | 0.103 | 0.122
in methyl acetate | 0.00372 | 0.00431 | 0.00542 | 0.00668 | 0.00826 | 0.00969 | 0.0127 | 0.0152 | 0.0184 | 0.0218
in n-butanol | 0.0172 | 0.0189 | 0.022 | 0.0248 | 0.0284 | 0.0319 | 0.0359 | 0.041 | 0.0482 | 0.0565
in n-pentanol | 0.0126 | 0.0136 | 0.0152 | 0.0177 | 0.0204 | 0.0234 | 0.0279 | 0.033 | 0.039 | 0.046
in n-propanol | 0.0218 | 0.0242 | 0.0275 | 0.0324 | 0.0374 | 0.0418 | 0.0455 | 0.0541 | 0.0639 | 0.0764
in n-propyl acetate | 0.00198 | 0.00249 | 0.00323 | 0.00404 | 0.00494 | 0.00615 | 0.0072 | 0.00832 | 0.00937 | 0.0109
